Data taken from US20130029981A1, “COMPOUNDS, COMPOSITIONS, AND METHODS FOR CONTROLLING BIOFILMS” (Katholieke Universiteit Leuven, priority 2009, published 2013).
Like-named read-outs stand apart in the source and are kept apart here.

Test system: S. Typhimurium ATCC14028
Assay: Static peg assay for prevention of biofilm formation (Calgary device, crystal violet)
Format: cell-based, Salmonella Typhimurium
Description: (§1) Evaluation of the biofilm inhibitory activity of some substituted 2-amino-1H-imidazoles of the invention was carried out by growing up biofilms of S. Typhimurium ATCC14028 or SL1344 or Pseudomonas aeruginosa PA14 in the presence of different concentrations (1/2 dilution series) of biofilm inhibitors, by using the Calgary biofilm device. After an incubation period of 24 hours at 25° C. or 37° C. or 48 hours at 16° C. the biofilms were visualized by crystal violet staining. In the next step the stain was extracted from the biofilm with 30% acetic acid. The absorbance of the resolubilized stain at 570 nm is a measure of the amount of biofilm formed.
In examples 2 and 3, the following materials and methods were used.
The device used for biofilm formation is a platform carrying 96 polystyrene pegs (Nunc no. 445497) that fits as a microtiter plate lid with a peg hanging into each microtiter plate well (Nunc no. 269789). Biofilm formation assays were carried out at 16° C., 25° C. and 37° C.
For biofilm assays at 16° C. and 25° C., two-fold serial dilutions of the compounds in 100 μl liquid TSB 1/20 broth per well were prepared in the microtiter plate. Subsequently, an overnight culture of S. Typhimurium ATCC14028 or SL1344 (grown up in LB medium) was diluted 1:100 into TSB 1/20 broth and 100 μl (ca. 10^6 cells) was added to each well of the microtiter plates, resulting in a total amount of 200 μl medium per well. The pegged lid was placed on the microtiter plate and the plate was incubated for 48 hours at 16° C. or for 24 hours at 25° C. without shaking. During this incubation period biofilms were formed on the surface of the pegs. In case of the assay at 16° C., after 24 hours the lid was transferred into a new plate with medium and the specific molecules used for testing. […] For quantification of biofilm formation, the pegs were washed once in 200 μl phosphate buffered saline (PBS). The remaining attached bacteria were stained for 30 minutes with 200 μl 0.1% (w/v) crystal violet in an isopropanol/methanol/PBS solution (v/v 1:1:18). Excess stain was rinsed off by placing the pegs in a 96-well plate filled with 200 μl distilled water per well. After the pegs were air dried (30 min), the dye bound to the adherent cells was extracted with 30% glacial acetic acid (200 μl). The OD570 of each well was measured using the VERSAmax microtiter plate reader. The IC50 value for each compound was determined from concentration gradients in two or three independent experiments (with 2 or 3 repeats per experiment), by using the GraphPad software of Prism.
For biofilm assays at 37° C., two-fold serial dilutions of the compounds in 50 μl liquid CFA broth per well were prepared in the microtiter plate. Subsequently, an overnight culture of S. Typhimurium ATCC 14028 was diluted 1:100 into CFA broth and 100 μl (ca. 10^6 cells) was added to each well of the microtiter plates, resulting in a total amount of 150 μl medium per well. The pegged lid was placed on the microtiter plate and the plate was incubated for 24 hours at 37° C. without shaking. During incubation the plates were placed in a humidity controlled container to prevent evaporation of the growth medium. Quantification of biofilm formation was performed similarly as described above for the assays at 16° C. and 25° C.
as §1, with “imidazo[1,2-a]pyrimidinium bromide salts” for “2-amino-1H-imidazoles”

[1] = 25° C., strain not given, read-out: IC(50), preventive activity against S. typhimurium biofilms
[2] = Salmonella enterica, 25° C., Table 11, read-out: IC50 (biofilm formation)
[3] = Salmonella enterica, 25° C., Table 14, read-out: IC50 biofilm inhibition
[4] = S. Typhimurium ATCC 14028, 25° C., read-out: S. Typhimurium IC50 (biofilm formation)
[5] = 25° C., Table 11, read-out: IC50 (biofilm formation)
[6] = 25° C., Table 14, read-out: IC50 biofilm inhibition
[7] = 25° C., Table 19, read-out: IC50 (biofilm formation)
[8] = S. Typhimurium ATCC 14028, 25° C., read-out: IC50 for biofilm inhibition (25° C.)
[9] = 25° C., Table 16, read-out: S. Typhimurium IC50 (biofilm formation)
[10] = 25° C., 24 hours, Table 15, read-out: (1) IC50 (biofilm inhibition)
[11] = Salmonella enterica, 25° C., 24 hours, Table 15, read-out: (1) IC50 (biofilm inhibition)

COc1ccc(-c2cn(CCNc3ncc(-c4ccc(Cl)c(Cl)c4)[nH]3)nn2)cc1 [R3=3,4-diClPh; R4=H; R9=p-MeOPh; n=2]
IC50 [1]: > 800 µM

COc1ccc(CN2c3nccc[n+]3CC2(O)c2ccc([N+](=O)[O-])cc2)cc1 (stereo not shown) [R1=p-MeOBn, R3=4-NO2-Ph, R4=H, 1-(4-methoxybenzyl)-2-hydroxy-2-(4-nitrophenyl)-2,3-dihydro-1H-imidazo[1,2-a]pyrimidin-4-ium bromide]
IC50 [2]: 220 µM | IC50 [3]: 220 µM

O=[N+]([O-])c1ccc(C2(O)C[n+]3cccnc3N2C2CC2)cc1 (stereo not shown) [Compound 68]
IC50 (25° C., Table 18, read-out: S. Typhimurium IC50 (biofilm formation)): 125 µM

CNc1ncc(-c2ccc(O)cc2)[nH]1 [Compound 113]
IC50 [4]: 160 µM

O=[N+]([O-])c1ccc(C2(O)C[n+]3cccnc3N2Cc2ccccc2)cc1 (stereo not shown) [Compound 72]
IC50 [5]: 222 µM | IC50 [6]: 222 µM | IC50 [7]: 174 µM

Cc1ccc(-c2cn(CCNc3ncc(-c4ccc(Br)cc4)[nH]3)nn2)cc1 [R3=4-BrPh; R4=H; R9=p-MePh; n=2]
IC50 [1]: > 800 µM

COc1cccc(CCN2c3nccc[n+]3CC2(O)c2ccc(F)cc2)c1 (stereo not shown) [Compound 76]
IC50 [7]: 105 µM

O=[N+]([O-])c1ccc(-c2c[nH]c(NC3CCCC3)n2)cc1 [R1=H, R2=cyclopentyl, R3=H, R4=p-NO2—Ph]
IC50 [8]: 12 µM

Cc1ccc(C2(O)C[n+]3cccnc3N2C(C)C)cc1 (stereo not shown) [R1=Isopropyl, R3=4-Me—Ph, R4=H, 1-isopropyl-2-hydroxy-2-(4-methylphenyl)-2,3-dihydro-1H-imidazo[1,2-a]pyrimidin-4-ium bromide]
IC50 [2]: 217 µM | IC50 [3]: 217 µM

CCCc1cn(CCNc2ncc(-c3ccc(Cl)c(Cl)c3)[nH]2)nn1 [R3=3,4-diClPh; R4=H; R9=propyl; n=2]
IC50 [1]: 35.6 µM

Clc1ccc(-c2cnc(NCCCn3cc(C4CCCCC4)nn3)[nH]2)cc1Cl [R3=3,4-diClPh; R4=H; R9=c-hexyl; n=3]
IC50 [1]: 26.8 µM

CC(C)(C)c1ccc(-c2cn(CCCNc3ncc(-c4ccc(Cl)c(Cl)c4)[nH]3)nn2)cc1 [R3=3,4-diClPh; R4=H; R9=p(t-Bu)Ph; n=3]
IC50 [1]: 17.8 µM

Clc1ccc(-c2cnc(NCCCn3cc(-c4ccsc4)nn3)[nH]2)cc1Cl [R3=3,4-diClPh; R4=H; R9=thiofuran; n=3]
IC50 [1]: 2 µM

CCCCCc1cn(CCNc2nc(-c3ccc(C)cc3)c(-c3ccc(Cl)cc3)[nH]2)nn1 [R3=p-ClPh; R4=p-MePh; R9=Pentyl; n=2]
IC50 [1]: 371 µM

CN1c2nccc[n+]2CC1(O)c1ccc([N+](=O)[O-])cc1 (racemic) [Compound 28]
IC50 [9]: 698 µM

CCCCCCCCCCN1c2nccc[n+]2CC1(O)c1ccc(-c2ccc(-c3ccc([N+](=O)[O-])cc3)cc2)cc1 (racemic)
IC50 [10]: 525 µM

CCCCN1c2nccc[n+]2CC1(O)c1ccc(OC)cc1 (stereo not shown) [Compound 45]
IC50 [9]: 314 µM

Cc1ccc(-c2c[nH]c(NC(C)C)n2)cc1 [R1=H, R2=i-Propyl, R3=H, R4=p-Me—Ph]
IC50 [8]: 99 µM

CCCCN1c2nccc[n+]2CC1(O)c1ccc(F)cc1 (stereo not shown) [Compound 38]
IC50 [5]: 175 µM | IC50 [6]: 175 µM | IC50 [9]: 163 µM

CCCCCCCCCNc1nc(-c2ccc(Cl)cc2)c[nH]1 [Compound 89]
IC50 [4]: > 800 µM

CCCCN1c2nccc[n+]2CC1(O)c1ccc(Br)cc1 (stereo not shown) [Compound 41]
IC50 [5]: 64.9 µM | IC50 [6]: 64.9 µM | IC50 [9]: 90.1 µM

COc1ccc(CN2c3nccc[n+]3CC2(O)c2ccc(Br)cc2)cc1 (stereo not shown) [Compound 74]
IC50 [5]: 105 µM | IC50 [6]: 105 µM | IC50 [7]: 110 µM

c1ccc(-c2cn(CCNc3ncc(-c4ccccc4)[nH]3)nn2)cc1 [R3=Ph; R4=H; R9=Phenyl; n=2]
IC50 [1]: 36.5 µM

Cc1ccc(-c2nc(NCCn3cc(C4CCCC4)nn3)[nH]c2-c2ccc(Cl)cc2)cc1 [R3=p-ClPh; R4=p-MePh; R9=c-Pentyl; n=2]
IC50 [1]: 6.5 µM

CCCCNc1nc(-c2ccccc2)c[nH]1 [R1=H, R2=Butyl, R3=H, R4=Ph]
IC50 [8]: 25 µM

CCCCCCCCCCN1c2nccc[n+]2CC1(O)c1ccc(S(C)(=O)=O)cc1 (stereo not shown) [1-decyl-2-hydroxy-2-(4-methylsulfonylphenyl)-2,3-dihydro-1H-imidazo[1,2-a]pyrimidin-4-ium bromide]
IC50 [11]: 21.9 µM

CNc1ncc(-c2ccc(F)c(F)c2)[nH]1 [Compound 112]
IC50 [4]: 602 µM

Fc1ccc(-c2cnc(NCCn3cc(C4CCCC4)nn3)[nH]2)cc1 [R3=4-FPh; R4=H; R9=c-pentyl; n=2]
IC50 [1]: 128 µM

Fc1ccc(-c2cnc(NCCn3cc(C4CC4)nn3)[nH]2)cc1 [R3=4-FPh; R4=H; R9=c-propyl; n=2]
IC50 [1]: 93.3 µM

Brc1ccc(-c2cnc(NCCn3cc(C4CCCCC4)nn3)[nH]2)cc1 [R3=4-BrPh; R4=H; R9=c-hexyl; n=2]
IC50 [1]: 8.4 µM

CCCCCCCc1cn(CCNc2ncc(-c3ccc(Br)cc3)[nH]2)nn1 [R3=4-BrPh; R4=H; R9=heptyl; n=2]
IC50 [1]: 189 µM

Clc1ccc(-c2cnc(NCCn3cc(C4CCCCC4)nn3)[nH]2)cc1Cl [R3=3,4-diClPh; R4=H; R9=c-hexyl; n=2]
IC50 [1]: 55.2 µM

c1ccc(-c2cn(CCCNc3ncc(-c4ccccc4)[nH]3)nn2)cc1 [R3=Ph; R4=H; R9=phenyl; n=3]
IC50 [1]: 40 µM

CCCCCCCCCCN1c2nccc[n+]2CC1(O)c1ccc(Cl)c(Cl)c1 (stereo not shown) [Compound 50]
IC50 [10]: 32.4 µM | IC50 [9]: 32.4 µM

CCCCCCCCCCN1c2nccc[n+]2CC1(O)c1ccc(OC)cc1 (stereo not shown) [Compound 47]
IC50 [10]: 18.6 µM | IC50 [9]: 18.6 µM

COc1ccc(-c2cn(CCNc3ncc(-c4ccc(Br)cc4)[nH]3)nn2)cc1 [R3=4-BrPh; R4=H; R9=pMeOPh; n=2]
IC50 [1]: 91.2 µM

c1ccc(-c2c[nH]c(NC3CCCC3)n2)cc1 [R1=H, R2=cyclopentyl, R3=H, R4=Ph]
IC50 [8]: 53 µM

CNc1nc(-c2ccc(F)cc2)c[nH]1 [R1=H, R2=Methyl, R3=H, R4=p-F—Ph]
IC50 [8]: 102 µM

Brc1ccc(-c2cnc(NCCn3cc(C4CC4)nn3)[nH]2)cc1 [R3=4-BrPh; R4=H; R9=c-propyl; n=2]
IC50 [1]: 2.02 µM

CCCCCCCCCCN1c2nccc[n+]2CC1(O)c1ccc(F)cc1 (stereo not shown) [Compound 40]
IC50 [10]: 20 µM | IC50 [9]: 20 µM

CC(C)(N)c1cn(CCCNc2ncc(-c3ccc(Br)cc3)[nH]2)nn1 [R3=4-BrPh; R4=H; R9=C(CH3)2(NH2); n=3]
IC50 [1]: 30.9 µM

CCCCCCCCCCN1c2nccc[n+]2CC1(O)c1cccc(Br)c1 (stereo not shown) [1-decyl-2-hydroxy-2-(3-bromophenyl)-2,3-dihydro-1H-imidazo[1,2-a]pyrimidin-4-ium bromide]
IC50 [11]: 33.8 µM

COc1cccc(CCN2c3nccc[n+]3CC2(O)c2ccc([N+](=O)[O-])cc2)c1 (stereo not shown) [Compound 75]
IC50 [5]: 124 µM | IC50 [6]: 124 µM | IC50 [7]: 124 µM

CN1c2nccc[n+]2CC1(O)c1ccc(F)cc1 (stereo not shown) [Compound 37]
IC50 [9]: > 800 µM

CCCCNc1nc(-c2ccc(Br)cc2)c[nH]1 [R1=H, R2=Butyl, R3=H, R4=p-Br—Ph]
IC50 [8]: 7 µM

CCCCCCCCCCN1c2nccc[n+]2CC1(O)c1cccc2ccccc12 (stereo not shown) [1-decyl-2-hydroxy-2-(1-naphthalenyl)-2,3-dihydro-1H-imidazo[1,2-a]pyrimidin-4-ium bromide]
IC50 [11]: 68.9 µM
